{
  "source": "patent US11058661B2",
  "about": "“Compositions and methods for lowering triglycerides in a subject on concomitant statin therapy and having hsCRP levels of at least about 2 mg/L” (priority 2018, dated 2021)",
  "tested_on": "statin-treated patients with fasting TG ≥200 and <500 mg/dL",
  "experiment": "ANCHOR study, entire population: fasting TG",
  "assay_type": "in vivo, human",
  "conditions": "4 g/day",
  "protocol": "A multi-center, placebo-controlled, randomized, double-blind, 12-week study is performed to evaluate the efficacy and safety of >96% E-EPA in patients with fasting triglyceride levels ≥200 mg/dl and <500 mg/dl despite statin therapy (the mean of two qualifying entry values needs to be ≥185 mg/dl and at least one of the values needs to be ≥200 mg/dl). The primary objective of the study is to determine the efficacy of >96% E-EPA 2 g daily and 4 g daily, compared to placebo, in lowering fasting TG levels in patients with high risk for cardiovascular disease and with fasting TG levels ≥200 mg/dL and <500 mg/dL, despite treatment to LDL-C goal on statin therapy.\nThe population for this study is men and women >18 years of age with a body mass index ≤45 kg/m^2 with fasting TG levels greater than or equal to 200 mg/dl and less than 500 mg/dl and on a stable does of statin therapy (with or without ezetimibe). The statin must be atorvastatin, rosuvastatin or simvastatin. The dose of statin must be stable for ≥4 weeks prior to the LDL-C/TG baseline qualifying measurement for randomization. The statin dose will be optimal such that the patients are at their LDL-C goal at the LDL-C/TG baseline qualifying measurements. The same statin at the same dose will be continued until the study ends. […]",
  "data": [
    {"smiles": "CC/C=C\\C/C=C\\C/C=C\\C/C=C\\C/C=C\\CCCC(=O)OCC", "note": "[Icosapent Ethyl, ethyl eicosapentaenoate]", "values": [
      {"measurement": "reduction of median TG from baseline compared with placebo", "value": 21.5, "unit": "%"}
    ]}
  ]
}
